Where “and” joins values, the source holds several entries; their conditions need not be identical. Equal values may be shown once.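 Growth conditions: 96-well plates. Treatment: test compound, 48 hours, 5 concentrations. Analysis: linear interpolation between bracketing concentrations; unreached endpoints set to highest concentration. At the GI50, growth is halved. At the TGI there is no net growth.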
Assays:
Assay in all cases: NCI anticancer screen, dose series, 48 h
DMS 273 small cell lung = system: DMS 273 small cell lung
SNB-78 CNS = system: SNB-78 CNS
SNB-75 CNS = system: SNB-75 CNS
SK-MEL-2 melanoma = system: SK-MEL-2 melanoma
CCRF-CEM leukemia = system: CCRF-CEM leukemia
CAKI-1 renal = system: CAKI-1 renal
A498 renal = system: A498 renal
UACC-62 melanoma = system: UACC-62 melanoma
PC-3 prostate = system: PC-3 prostate
MDA-MB-435 = system: MDA-MB-435

Row | SMILES | TGI (DMS 273 small cell lung) | TGI (SNB-78 CNS) | TGI (SNB-75 CNS) | TGI (SK-MEL-2 melanoma) | TGI (CCRF-CEM leukemia) | TGI (CAKI-1 renal) | TGI (A498 renal) | TGI (UACC-62 melanoma) | TGI (PC-3 prostate) | TGI (MDA-MB-435) | GI50 (MDA-MB-435) | GI50 (SNB-78 CNS) | GI50 (SNB-75 CNS) | GI50 (SK-MEL-2 melanoma) | GI50 (CCRF-CEM leukemia) | GI50 (A498 renal) | GI50 (UACC-62 melanoma)
1 | CCOc1ccccc1Nc1nc(C)c(C(=O)CC(=O)C(=O)Nc2ccccc2)s1 | > 100 µM | > 100 µM | 88.6 µM | > 100 µM | > 100 µM | > 100 µM | > 100 µM | > 100 µM |  |  |  |  |  |  |  |  | 
2 | Cc1cn2cc(-c3ccncc3)nc2s1 | > 100 µM | > 100 µM | > 100 µM | > 100 µM | > 78.1 µM | > 100 µM | > 100 µM | > 100 µM |  |  |  |  |  |  |  |  | 
3 | CC(=O)/C=C\C(=O)NNS(=O)(=O)c1ccc(C)cc1 | > 100 µM | > 100 µM | > 100 µM | > 100 µM | > 100 µM | > 100 µM | > 100 µM | > 100 µM |  |  |  |  |  |  |  |  | 
4 | O=C(NC(c1ccccc1)C(O)C(=O)OCc1ccc2c(c1)C(=O)c1ccccc1C2=O)c1ccccc1 (stereo unspecified) | > 100 µM | > 92.4 µM | 24.6 µM | 86.9 µM | > 100 µM | 20.1 µM | 15.7 µM | 53 µM | 42.1 µM | > 100 µM |  |  |  |  |  |  | 
5 | Cc1ccc(S(=O)(=O)c2ccccn2)cc1 | > 100 µM | > 100 µM | > 100 µM | > 100 µM | > 100 µM | > 100 µM | > 100 µM | > 100 µM |  |  |  |  |  |  |  |  | 
6 | O=C(Nc1cccc(Cl)c1)c1cc2cc(N=Nc3ccc(Br)cc3)ccc2oc1=O | 55.6 µM | > 100 µM | > 100 µM | 52.7 µM |  | > 100 µM | > 100 µM | 39.1 µM |  |  |  |  |  |  |  |  | 
7 | COc1cccc2c1C(=N)c1c(O)c3c(c(O)c1C2=O)C[C@@](O)(C(C)=O)C[C@@H]3OC1CC(N)C(O)C(C)O1 (stereo partly specified) | 1.65 µM and 1.86 µM | 8.68 µM and 18.9 µM |  | 4.6 µM and 6.27 µM and 1.23 µM | 0.473 µM and 0.975 µM | 1.37 µM and 1.03 µM and 4.86 µM | 3.06 µM and 6.52 µM and 1.88 µM | 1.61 µM and 1.9 µM and 2.61 µM | 2.98 µM | 4.47 µM | 1.1 µM |  |  |  |  |  | 
8 | CC1CCCC2(O1)OC1CC(=O)OC1C1=C2C(=O)c2ccccc2C1=O (stereo unspecified) | 3.82 µM | 4.85 µM | 23.7 µM | 6.11 µM |  | 7.13 µM | 33.8 µM | 5.1 µM |  |  |  |  |  |  |  |  | 
9 | CC(=O)NC1C(=O)CC(c2ccccc2)N(C)C1c1ccccc1 (stereo unspecified) | > 100 µM | > 100 µM | > 100 µM | > 100 µM | > 100 µM | > 100 µM | > 100 µM | > 100 µM |  |  |  |  |  |  |  |  | 
10 | NCCN.O=N[O-].O=N[O-].O=N[O-].O=N[O-].[Co+3].[K+] |  | > 100 µM | > 100 µM | > 100 µM | > 100 µM |  | > 100 µM | > 100 µM |  |  |  | > 100 µM | > 100 µM | > 100 µM | > 100 µM | > 100 µM | > 100 µM

Reference: PubChem BioAssay (NCI)
